Experimental data reported in patent publication US9550811B2, “Peptide scaffold design” (BIONOR IMMUNO AS, priority 2010, dated 2017).
Read-outs that look alike come from different tables or passages of the source.

Columns and labels:
[1] = tested on: DC-cells; assay: Cell penetration assay: staining for biotinylated peptides, dendritic cells gated as CD11c+; type: cell-based, human; conditions: low concentration of peptides (208 uM)
Procedure: A set of peptides were biotinylated on N-terminal, and different combinations of aminoacids, with respect to length and type, were added to the sequence box X^1, X^3 and X^4 in the peptides as illustrated by the diagram below. The peptides were tested on cells grown from one individual blood donor.
96-well U-bottom polystyrene plates (NUNC, cat no: 163320) were used for staining of human PBMCs. Briefly, 8 ul of N- or C-terminally biotinylated peptides according to table 1 or table 2 (i.e. 5 mM, 2.5 mM & 1.25 mM tested for each peptide) were incubated at 37° C. for 2 h with 40 ul of PBMC (12.5×10^6 cells/ml) from blood donors. Cells were then washed 3× with 150 ul of Cellwash (BD, cat no: 349524), followed by resuspension of each cell pellet with 100 ul of Trypsin-EDTA (Sigma, cat no: T4424), then incubated at 37° C. for 5 min. Trypsinated cells were then washed 3× with 150 ul of Cellwash (BD, cat no: 349524), followed by resuspension with BD Cytofix/Cytoperm™ plus (BD, cat no: 554715), then incubated at 4° C. for 20 min according to manufacturer. Cells were then washed 2× with 150 ul PermWash (BD, cat no: 554715). Cells were then stained with Streptavidin-APC (BD, cat no: 554067) & Anti-hCD11c (eBioscience, cat no: 12-0116) according to manufacturer at 4° C. for 30 min aiming to visualize biotinylated peptides & dendritic cells, respectively. Cells were then washed 3× with 150 ul PermWash, followed by resuspension in staining buffer (BD, cat no: 554656) before flow cytometry. Dendritic cells were gated as CD11c+ events outside lymphocyte region (i.e. higher FSC & SSC signals than lymphocytes). 200 000 total cells were acquired on a FACSCanto II flow cytometer with HTS loader, and histograms for both total cells & dendritic cells with respect to peptide-fluorescence (i.e. GeoMean) were prepared.
As shown in table 4 the peptides according to the invention had the ability to allocate through the cell membrane.

[2] = tested on: human PBMCs; type: cell-based; conditions: With Cytofix/Cytoperm and trypsination, BC20

| Sequence | Results on DC-cells (geomean peptide-fluorescence) ([1]; BC 16) | Results on DC-cells (geomean peptide-fluorescence) ([1]; BC43) | Geomean value (peptide-fluorescence) ([2]; concentration 104 μM) | Geomean value (peptide-fluorescence) ([2]; concentration 208 μM) | Geomean value (peptide-fluorescence) ([2]; concentration 417 μM) | Geomean value (peptide-fluorescence) ([2]; concentration 833 μM) |
| --- | --- | --- | --- | --- | --- | --- |
| EEGYIPLVGAPLGRRVARALAHGVRV [SP16] | 5730 | 3656 | 505 | 1260 | 2240 | 4558 |
| GGGYIPLVGAPLGGGVARALAHGVRV [SP15] | 5076 | 2539 | 600 | 848 | 477 | 1810 |
| KKGYIPLVGAPLGKKVARALAHGVRV [SP11] | 6490 | 13230 | 601 | 1277 | 3562 | 8262 |
| RGYIPLVGAPLGKKKVARALAHGVRV [SP9] | 8356 | 10084 | 1268 | 2945 | 6060 | 11344 |
| RGYIPLVGAPLGRRRVARALAHGVRV [SP10] | 8627 | 9216 | 3709 | 7684 | 18607 | 43389 |
| RGYIPLVGAPLGRRRVARALAHGVRVR [SP4] | 10751 | 17372 | 2946 | 7540 | 28008 | 41491 |
| RGYIPLVGAPLGRRVARALAHGVRV [SP3] | 9480 | 10573 | 4308 | 10788 | 25905 | 40456 |
| RRGPVVHLTLRGRRGQAGDDFS [SP20] | 19051 | 3383 | 445 | 1268 | 2457 | 7319 |
| RRGPVVHLTLRRRGQAGDDFS [SP18] | 5545 | 7751 | 1038 | 1971 | 1334 | 4869 |
| RRGPVVHLTLRRRGQAGDDFS [SP19] | 6522 | 6536 | 1625 | 3466 | 7201 | 17018 |
